From US4829086A, “Soft β-adrenergic blocking agents” (priority 1985, dated 1989)
Entries after “also recorded” stand apart in the source; their conditions may differ. Structures can show the parent of a compound that is named as a salt.

How the values were obtained:
[1] = Hydrolytic rate in 0.01 N aqueous sodium hydroxide, pH 12.0; assay type: physicochemical; conditions: pH 12.0, ionic strength 0.10 M (NaCl), 27.3 ± 0.2° C.
Method: Analytical Methods. A high pressure liquid chromatography (HPLC) method was developed for the determination of the rate constants. The chromatographic analysis was performed in a system consisting of Waters Associates Model 600-A Solvent Delivery System, Model U-6K Injector and Model 440 Dual Channel Absorbance Detector operated at 254 and 280 nm. A 30 cm×3.9 mm (internal diameter) reverse phase μBondpack C18 column (Waters Associates), operated at ambient temperature, was used for all separations. When plasma samples were analyzed, the column was protected with a 2.3 cm×3.9 mm (internal diameter) Guard Column (Waters) packed with μBondpack C18/Corasil packing material. The mobile phase used for the separation of 17 and its degradation product, 5, consisted of water, 1-hexane sulfonic acid in acetic acid (B-6 reagent, Waters), 0.1M triethanolamine and methanol (100:1:100:799). […] For the separation of compounds 10-16 and 18 and their degradation product 5, a mobile phase consisting of water, 1-hexane sulfonic acid in acetic acid (B-6 reagent, Waters), 0.1M triethanolamine and methanol (390:1:10:599) was used.
Determination of the Hydrolytic Rate Constants in Aqueous Solutions. A 0.01M phosphate buffer and 0.01N sodium hydroxide solution were prepared from freshly distilled deionized water. This ionic strength was maintained at 0.1M with sodium chloride. The pH of the phosphate buffer was determined at 37.0° C. with a pH meter standardized at this temperature. For determination of the hydrolytic rate constants, a fresh concentrated solution of the ester in methanol was added to the hydrolytic medium previously equilibrated to the desired temperature and mixed thoroughly to result in an initial concentration of about 5×10^-4 mol. liter^-1. All reactions were run under pseudo first order conditions. Samples of 25 μL were injected into the column at various time intervals and the pseudo first order rate constants were determined from disappearance of the compound by linear regression of natural logarithm of the peak height versus time plots. The half-life and standard error of the rate constant were calculated for each run.

[2] = system: heart rate response to isoproterenol (β-adrenergic); test: Duration of action study, heart rate in rats; assay type: in vivo, male Sprague Dawley rats; conditions: 6 mg/kg i.p.; for resting heart rate prior to isoproterenol: mean ± SEM
Method: Duration of Action Studies. An additional 38 male Sprague Dawley rats (Blue Spruce Farms) initially weighing 268 to 290 gm were anesthetized with sodium pentobarbital (45 mg/kg i.p.), and the carotid artery was cannulated as previously described. On the day of experimentation, after a one-hour equilibration period, initial baseline conditions of basal heart rate and mean blood pressures were recorded. The beta blocker (17) was administered intraperitoneally at a dose of 6 mg/kg. The drug was dissolved in an ethanol: water solution (3:1). This carrier was administered in the control rats. Isoproterenol (Isurprel®, Wintrop Laboratories) was then administered (25 μg/kg s.c.), either 15(n=13), 60(n=12) or 90(n=12) minutes after the beta blocker was administered. Blood pressures and heart rates were recorded at 3, 5, 10, 15, 20, 30, 45 and 60 minutes after isoproterenol administration in all three trials. Both control and experimental animals were unrestrained and free moving in their home cages throught the experiment. Heart rates and mean blood pressure were calculated from the data and a one-way ANOVA was determined at each time interval. The results are shown in FIG. 2 for control vehicle and compound 17 at 15(), 60() and 90() minutes prior to isoproterenol administration at time zero. Resting heart rates were similar in all 4 groups prior to administration of isoproterenol; 342±12; 375±14; 372±19 and 385±17 beats/minute, respectively. […] Data are shown as mean±standard error of the mean.

[3] = system: heart rate response to isoproterenol (β-adrenergic); test: Cardiovascular experiments in dogs: blockade of isoproterenol heart rate response; assay type: in vivo, mongrel dogs
Method: Method. Healthy, mongrel dogs were anesthetized with a combination of morphine sulfate (2.0 mg/kg, subcutaneously) followed in 20 minutes with pentabarbital sodium (15 mg/kg, intravenously). Supplemental pentabarbital was given as necessary. A femoral vein was catheterized with polyethylene tubing to the level of the heart for injecting drug solutions. A polyethylene tube filled with heparinized saline was inserted through the femoral artery and advanced to the thoracic aorta for the measurement of arterial pressure. The left carotid artery was cannulated with a Millar® transducer-tip catheter for measurement of left ventricular pressure (LVP). The rising slope of the LVP signal was differentiated to give dP/dt, an estimate of myocardial contractility. Heart rate was determined via a Grass cardiotachometer triggered by the R wave of the lead II EKG. All variables were recorded on a Grass polygraph.
Dose-response curves were constructed for each experimental variable to graded i.v. doses of the β-adrenergic agonist, isoproterenol. A period of 3-5 minutes was allowed after each injection for variables to return to base-line. Following this, one of the four experimental β-adrenergic blocking agents was given i.v. over a one-minute period. Abbreviated dose-response curves (2-3 dose points) were again constructed to isoproterenol at 15, 30, 45, 60, 75 and 90 minutes after the administration of the test blockers. Using a 50-beat per minute (bpm) increase in heart rate as criteria, the degree of blockade was determined by dividing the dose of isoproterenol needed to produce a 50 bpm increase at various times following administration of an antagonists by the dose needed for this effect during the control period. The doses of the experimental β-adrenergic antagonists given were determined from previous experiments to produce an approximate two- or four-fold blockade of the heart rate response to isoproterenol.

[4] = 1 mg/kg i.v., 15 minute measurements

In the case of `CC(C)NCC(O)COc1ccc(CC(=O)OC2CC(C)(C)CC(C)(C)C2)cc1` (stereo not drawn) [Compound 17, 3,3,5,5-Tetramethylcyclohexyl 4-(2-hydroxy-3-isopropylamino)propoxyphenylacetate oxalate 3/4 hydrate], the “Observed pseudo first order hydrolytic rate constant k” value ([1]; 0.01 N NaOH, ± SEM) is reported as 1.56 ± 0.04 × 10^-2 min^-1, the half-life ([1]; 0.01 n naoh, pH 12, 0.01 N NaOH, read-out: Half-life t1/2) is reported as 44.4 min and the “heart rate response to isoproterenol” value ([2]; 15 or 60 minutes prior to isoproterenol 25 μg/kg s.c., FIG. 2, hydrate) is reported as “attentuated heart rate response; also recorded: significant activity on heart rate”. The “resting heart rate prior to isoproterenol” value (shortened to “resting heart rate prior”) ([2]; 15 minutes prior to isoproterenol) was 375±14 beats/minute, the “resting heart rate prior” value ([2]; 60 minutes prior to isoproterenol) was 372±19 beats/minute and the “heart rate activity at 90 minutes” value ([2]; 90 minutes prior to isoproterenol, FIG. 2) was “disappears at 90 minutes”. For the same molecule, the “resting heart rate prior” value ([2]; 90 minutes prior to isoproterenol) was 385±17 beats/minute, the “Duration, Mean (time at which response to isoproterenol had returned to control levels)” value ([3]; 1 mg/kg i.v.) was ~ 70 min and the “Duration, Range (time at which response to isoproterenol had returned to control levels)” value ([3]; 1 mg/kg i.v.) was 45 to 90 min. For the same molecule, the “Maximal blockade, Mean (time necessary to reach maximal blockade)” value [3, 4] was 40 min, the “Maximal blockade, Range (time necessary to reach maximal blockade)” value [3, 4] was 30 to 60 min and the “duration of action” value ([3]; i.v.) was “much more variable and generally longer”.
